Measured values from patent US11160806B2, “Salt of N-(2,6-diethylphenyl)-8-({4-[4-(dimethylamino) piperidin-1-yl]-2-methoxyphenyl}amino)-1-methyl-4,5-dihydro-1H-pyrazolo[4,3-h]quinazoline-3-carboxamide, its preparation, and formulations containing it” (LES LABORATOIRES SERVIER, priority 2017, dated 2021).
Each block holds one molecule with its values, some of them ahead of it.

Key:
[1] = Hygroscopicity by Dynamic Vapour Sorption; assay type: physicochemical
Experimental: The compound to be tested is submitted to hygroscopicity test by means of a Dynamic Vapour Sorption apparatus (DVS 1000—Surface Measurement Systems).
The apparatus is briefly defined as a “controlled atmosphere microbalance” where the weighed sample is exposed to variations of the relative humidity (RH) at a constant and controlled temperature. An exactly weighed amount of the product (generally 5-10 mg) was analysed.

[2] = Preliminary solubility test, in situ salt formation from the amorphous base in water at room temperature; assay type: physicochemical
[3] = Purity and stability under long term conditions; assay type: physicochemical
From the text: Purity and stability of N-(2,6-diethylphenyl)-8-({4-[4-(dimethylamino) piperidin-1-yl]-2-methoxy phenyl}amino)-1-methyl-4,5-dihydro-1H-pyrazolo[4,3-h]quinazoline-3-carboxamide phosphate Form I have been tested under long term conditions as follows: […]

[4] = Solubility of phosphate salt crystalline form I in water (WFI) or NaCl 0.9% at room temperature, HPLC; assay type: physicochemical; settings: for Solubility 1 hour / Solubility 24 hours: room temperature
Experimental: Testing conditions: about 730 mg of testing compound were suspended in 4 ml of WFI (water for injection) or Saline (0.9% NaCl) to test a target solubility of 150 mg/ml as free base. The suspensions were magnetically stirred for 24 hours at room temperature and protected from light in amber glass vial. Testing compound concentrations were determined after 1 and 24 hours.

[5] = Stability over time under denaturing conditions (40° C./75% RH), chemical purity; assay type: physicochemical
Experimental: The compound of formula (II) according to the invention has a good stability over time under denaturing conditions (40° C./75% Relative Humidity (RH)): […]

[6] = molecular target: T1, MPS1 (Monopolar Spindle 1) kinase, also known as TTK (Homo sapiens, UniProt P33981); settings: cited from earlier work
T1 sequence (P33981 1-857): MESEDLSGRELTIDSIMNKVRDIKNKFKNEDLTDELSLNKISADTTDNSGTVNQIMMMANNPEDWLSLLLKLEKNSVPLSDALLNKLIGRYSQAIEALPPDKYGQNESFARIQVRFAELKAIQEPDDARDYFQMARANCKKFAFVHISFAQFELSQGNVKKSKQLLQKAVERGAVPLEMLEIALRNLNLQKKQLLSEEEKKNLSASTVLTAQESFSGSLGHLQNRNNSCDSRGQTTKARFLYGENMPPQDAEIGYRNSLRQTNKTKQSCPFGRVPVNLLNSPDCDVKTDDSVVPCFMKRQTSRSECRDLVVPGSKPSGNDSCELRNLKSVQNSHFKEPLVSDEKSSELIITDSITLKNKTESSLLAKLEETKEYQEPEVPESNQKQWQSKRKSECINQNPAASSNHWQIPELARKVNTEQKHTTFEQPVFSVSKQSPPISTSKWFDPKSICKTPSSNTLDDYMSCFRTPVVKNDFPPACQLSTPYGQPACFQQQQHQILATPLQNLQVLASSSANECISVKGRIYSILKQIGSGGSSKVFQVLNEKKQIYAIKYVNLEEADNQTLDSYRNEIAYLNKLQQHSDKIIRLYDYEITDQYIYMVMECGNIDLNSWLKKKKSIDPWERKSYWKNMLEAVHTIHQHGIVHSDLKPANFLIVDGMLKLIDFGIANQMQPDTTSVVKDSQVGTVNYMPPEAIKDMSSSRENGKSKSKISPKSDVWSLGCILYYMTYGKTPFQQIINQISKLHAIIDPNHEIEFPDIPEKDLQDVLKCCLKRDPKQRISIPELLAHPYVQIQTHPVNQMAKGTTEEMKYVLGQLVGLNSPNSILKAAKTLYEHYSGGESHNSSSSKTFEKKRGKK

Water uptake at 30% RH [1]: 0.4%
Water uptake at 60% RH [1]: 1%
Water uptake at 90% RH [1]: 2.5%
Improvement of solubility versus the free base [2]: at least 24 000 times
Improvement of solubility versus the hydrochloride salt [2]: at least 25 times
Appearance ([3]; 1 month 5° C.): Yellow
Drug substance ([3]; 1 month 5° C.): 99.94%
Total amount of impurities ([3]; 1 month 5° C.): 0.06%
Appearance ([3]; 1 month 25° C./60% RH): Yellow
Drug substance ([3]; 1 month 25° C./60% RH): 99.93%
Total amount of impurities ([3]; 1 month 25° C./60% RH): 0.07%
Appearance ([3]; 3 months 5° C.): Yellow
Drug substance ([3]; 3 months 5° C.): 99.93%
Total amount of impurities ([3]; 3 months 5° C.): 0.07%
Appearance ([3]; 3 months 25° C./60% RH): Yellow
Drug substance ([3]; 3 months 25° C./60% RH): 99.93%
Total amount of impurities ([3]; 3 months 25° C./60% RH): 0.07%
Appearance ([3]; 9 months 5° C.): Yellow
Drug substance ([3]; 9 months 5° C.): 99.93%
Total amount of impurities ([3]; 9 months 5° C.): 0.07%
Appearance ([3]; 12 months 5° C.): Yellow
Crystalline Form (XRD assessment) ([3]; 12 months 5° C.): Form I
Drug substance ([3]; 12 months 5° C.): 99.94%
Total amount of impurities ([3]; 12 months 5° C.): 0.06%
Appearance ([3]; 24 months 5° C.): Yellow
Crystalline Form (XRD assessment) ([3]; 24 months 5° C.): Form I
Drug substance ([3]; 24 months 5° C.): 99.91%
Total amount of impurities ([3]; 24 months 5° C.): 0.09%
Time over which the substance is stable ([3]; long term conditions): ≥ 24 months
Appearance ([3]; t0): Yellow
Crystalline Form (XRD assessment) ([3]; t0): Form I
Drug substance ([3]; t0): 99.94%
Total amount of impurities ([3]; t0): 0.06%
Solubility 1 hour ([4]; NaCl 0.9%): 81.0 mg/ml as free base
Solubility 24 hours ([4]; NaCl 0.9%): 133.6 mg/ml as free base
Solubility 1 hour ([4]; water): 87.5 mg/ml as free base
Solubility 24 hours ([4]; water): 130.2 mg/ml as free base
Chemical purity ([5]; 1 month 40° C./75% RH Open bottle): 99.4%
Chemical purity ([5]; t0): 99.5%
Compound: CCc1cccc(CC)c1NC(=O)c1nn(C)c2c1CCc1cnc(Nc3ccc(N4CCC(N(C)C)CC4)cc3OC)nc1-2.O=P(O)(O)O [Phosphate salt, N-(2,6-diethylphenyl)-8-({4-[4-(dimethylamino)piperidin-1-yl]-2-methoxyphenyl}amino)-1-methyl-4,5-dihydro-1H-pyrazolo[4,3-h]quinazoline-3-carboxamide phosphate]
Solubility at room temperature ([4]; both in water and in NaCl 0.9%): at least 130 mg/ml expressed as free base

Water uptake at 30% RH [1]: 0.4%
Water uptake at 60% RH [1]: 1%
Water uptake at 90% RH [1]: 2.8%
Solubility 1 hour ([2]; water, 1 hour): <0.001 mg/ml as free base
Solubility 24 hours ([2]; water, 24 hours): <0.001 mg/ml as free base
Solubility 1 hour ([4]; water): <0.001 mg/ml as free base
Solubility 24 hours ([4]; water): <0.001 mg/ml as free base
Compound: CCc1cccc(CC)c1NC(=O)c1nn(C)c2c1CCc1cnc(Nc3ccc(N4CCC(N(C)C)CC4)cc3OC)nc1-2 [Free Base, N-(2,6-diethylphenyl)-8-({4-[4-(dimethylamino)piperidin-1-yl]-2-methoxyphenyl}amino)-1-methyl-4,5-dihydro-1H-pyrazolo[4,3-h]quinazoline-3-carboxamide]
Ability to inhibit MPS1 kinase [6]: has the ability to inhibit MPS1
